Data set [1] is described as follows: In-vivo PET imaging in bleomycin treated rat model, LPA1 target engagement (% displacement). As to conditions: Sprague Dawley, rat, lung, intravenous, bleomycin treated rats, baseline. How it is done:
(§1) [^18F]-(1S,3S)-3-(((6-(5-((((4-(fluoro)butyl)(methyl)carbamoyl)oxy)methyl)-1-methyl-1H-1,2,3-triazol-4-yl)-2-methylpyridin-3-yl)oxy)cyclohexane-1-carboxylic acid was tested to confirm its properties, specificity and targeting of the LPA1 receptor in aged-matched wild type (Sprague Dawley rat, Charles River Laboratory, PA) and bleomycin-induced pulmonary fibrosis rat models. The bleomycin-induced pulmonary fibrosis rat model was generated in anesthetized rats that were administered bleomycin (2 μL/g) via oropharyngeal instillation. For oropharyngeal instillation, anesthetized rats (isoflurane, 4% in 100% 02) were placed on a slanted board/tilting workstation and bleomycin was dripped onto the vocal cords, facilitating aspiration. Rats were then returned to their cages until they fully recovered from anesthesia and were monitored daily for the duration of the experiment. In this experiment, the [^18F]-labeled LPA1 antagonist, produced as described in the above Examples, was tested for its ability to discriminate between normal lung in wild type rats and increased lung LPA1 expression in the bleomycin rat disease model. The bleomycin treated rats were used at 14 and 15 days post bleomycin treatment. […] For PET image acquisition, rats were placed in an anesthetic induction chamber and 3% isoflurane inhalant anesthesia was delivered in 100% O2 at a rate of 1-1.5 L/min. Once sedated, the rats were removed from the induction chamber and placed into a plexiglass 2-chamber holder (custom-made by BMS-Applied Biotechnology group) within the gantry of the PET system (microPET® F220™, Siemens Preclinical Solutions, Knoxville, Tenn.) where they remained for the duration of the study. Anesthesia was maintained with 1-1.5% isoflurane inhalant anesthesia delivered in 100% 02 at a rate of 2 L/min via the nose-cone. Animals were kept warm using an external standalone temperature regulating unit (M2M Imaging Corp) to prevent hypothermia during imaging. Rat respiration was continuously monitored during imaging procedures and isoflurane was adjusted dependent on depth of anesthesia. A 10-minute transmission image was first acquired using a ^57Co point source for the purpose of attenuation correction of the final PET images and confirmation of lung localization for region of interest (ROI) analysis. The scanning region was located beginning at the neck area and extending toward the hind limbs of each animal in order to place the lungs within the 7.6 cm microPET system axial field of view (FOV). Upon completion of the transmission scan, each rat received administration of between 19.5-29.7 MBq (542-803 μCi) of [^18F]-(1S,3S)-3-(((6-(5-((((4-(fluoro)butyl)(methyl) carbamoyl)oxy)methyl)-1-methyl-1H-1,2,3-triazol-4-yl)-2-methylpyridin-3-yl)oxy)cyclohexane-1-carboxylic acid tracer via tail vein catheter followed by a 2 hour dynamic PET emission scan. […] Images were reconstructed using a maximum a posteriori (MAP) algorithm with attenuation correction using the collected transmission images and corrected for radioisotope decay. The PET images were then co-registered with corresponding transmission images using anatomical landmarks (air in lung) and boundaries of the animal holder. Images were analyzed by Inveon Research Workstation (Siemens Medical Solutions USA Inc., PA). Analysis for each rat was done with regions of interest (ROIs) drawn onto each whole lung and a section of the liver using the co-registered transmission images. There were 3-4 ROIs drawn for each lung volume (left whole lung and right whole lung) as well as 3 ROIs drawn on a section of the liver. ROIs were drawn inside the whole lung to avoid spillover signal from the heart and liver. ROIs were drawn on a section of the liver using the same method. Based on quantitative values from these ROIs (nCi/cc), % injected dose/cc (% ID/g) was calculated. Radiotracer uptake was compared across lung tissues in these groups using the time periods between 60-90 minutes post radioligand injection. […]

The target in the next data set is LPA1 (Rattus norvegicus, UniProt P61794). Described as above. Particulars: bleomycin treated rats. How it is done: as §1
LPA1, sequence (P61794 whole entry): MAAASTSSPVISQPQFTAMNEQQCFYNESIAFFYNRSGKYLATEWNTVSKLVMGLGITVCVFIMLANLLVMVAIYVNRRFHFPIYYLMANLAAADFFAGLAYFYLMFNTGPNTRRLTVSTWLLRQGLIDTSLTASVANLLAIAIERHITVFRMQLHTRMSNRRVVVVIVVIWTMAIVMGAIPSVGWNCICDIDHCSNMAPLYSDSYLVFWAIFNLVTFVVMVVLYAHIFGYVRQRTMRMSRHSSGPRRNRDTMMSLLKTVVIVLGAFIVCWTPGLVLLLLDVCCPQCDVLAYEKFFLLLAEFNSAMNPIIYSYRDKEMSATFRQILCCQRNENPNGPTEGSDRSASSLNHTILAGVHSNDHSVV
Data set [2] is described as follows: Radio-metabolism, fraction intact post-injection. As to conditions: at the 90 minute post-injection. It counts as in vivo.

Regarding `Cc1nc(-c2nnn(C)c2COC(=O)N(C)CCCC[18F])ccc1O[C@H]1CCC[C@H](C(=O)O)C1` [Example 16], the tissue uptake stood at 0.12 ± 0.01 %ID/g in data set [1] (1 mg/kg, Group 1 (1 mg/kg group, n=6)); 0.1 ± 0.01 %ID/g in data set [1] (3 mg/kg, Group 2 (3 mg/kg group, n=6)); 0.12 ± 0.02 %ID/g in data set [1] (10 mg/kg, Group 3 (10 mg/kg group, n=6)); 0.09 ± 0.01 %ID/g in data set [1] (30 mg/kg, Group 4 (30 mg/kg group, n=7)); 0.1 ± 0.01 %ID/g in data set [1] (100 mg/kg, Group 5 (100 mg/kg group, n=6)). Also, the “Baseline % ID/g in Lung, Mean” value on LPA1 (Group 1 (1 mg/kg group, n=6), listed as [^18F]-(1S,3S)-3-(6-(5-((((4-(fluoro)butyl)(methyl)carbamoyl)oxy)methyl)-1-meth, 1 mg/kg))) is reported as 0.12 % ID/g; on LPA1 (Group 2 (3 mg/kg group, n=6), listed as [^18F]-(1S,3S)-3-(6-(5-((((4-(fluoro)butyl)(methyl)carbamoyl)oxy)methyl)-1-meth, 3 mg/kg))), 0.10 % ID/g; on LPA1 (Group 3 (10 mg/kg group, n=6), listed as [^18F]-(1S,3S)-3-(6-(5-((((4-(fluoro)butyl)(methyl)carbamoyl)oxy)methyl)-1-meth, 10 mg/kg))), 0.12 % ID/g; on LPA1 (Group 4 (30 mg/kg group, n=7), listed as [^18F]-(1S,3S)-3-(6-(5-((((4-(fluoro)butyl)(methyl)carbamoyl)oxy)methyl)-1-meth, 30 mg/kg))), 0.09 % ID/g; at LPA1 (Group 5 (100 mg/kg group, n=6), listed as [^18F]-(1S,3S)-3-(6-(5-((((4-(fluoro)butyl)(methyl)carbamoyl)oxy)methyl)-1-meth, 100 mg/kg))), 0.10 % ID/g. The “radio-metabolism, intact” value in data set [2] was found to be 80%.

As a reminder, the tissue uptake is the share of the injected amount in each gram of the tissue.

The values are drawn from US20210379210A1, “RADIOLIGANDS FOR IMAGING THE LPA1 RECEPTOR” (BRISTOL-MYERS SQUIBB COMPANY, priority 2018, published 2021).
